Laboratory results from the NIST ThermoML archive (doi:10.1016/j.jct.2019.01.021).
Values joined by “and” are separate entries in the source; they are usually repeats but may differ in a detail not shown here. Equal entries are not always repeated.

Assay: molar heat capacity at constant pressure
Settings: 101.33 kPa, Crystal 2, Small (less than 1 g) adiabatic calorimetry

N.NS(=O)(=O)O [ammonium sulfamate]
Settings | molar heat capacity at constant pressure
187.31 K | 118.02 J/K/mol
188.37 K | 118.34 J/K/mol
189.42 K | 118.66 J/K/mol
190 K | 119.06 J/K/mol
190.47 K | 118.99 J/K/mol
191.52 K | 119.43 J/K/mol
192.57 K | 119.89 J/K/mol
193.62 K | 120.26 J/K/mol
194.67 K | 120.69 J/K/mol
195.72 K | 121.06 J/K/mol
196.77 K | 121.57 J/K/mol
197.82 K | 122.07 J/K/mol
198.87 K | 122.46 J/K/mol
199.92 K | 122.56 J/K/mol
200 K | 122.64 J/K/mol
200.85 K | 122.86 J/K/mol
201.65 K | 123.16 J/K/mol
202.45 K | 123.44 J/K/mol
203.24 K | 123.74 J/K/mol
204.05 K | 123.89 J/K/mol
204.85 K | 124.1 J/K/mol
205.65 K | 124.38 J/K/mol
206.45 K | 124.7 J/K/mol
207.25 K | 124.92 J/K/mol
208.05 K | 125.1 J/K/mol
208.86 K | 125.38 J/K/mol
209.66 K | 125.69 J/K/mol
210 K | 125.96 J/K/mol
210.46 K | 125.83 J/K/mol
211.26 K | 126.04 J/K/mol
212.07 K | 126.32 J/K/mol
212.87 K | 126.64 J/K/mol
213.68 K | 127 J/K/mol
214.48 K | 127.38 J/K/mol
215.28 K | 127.75 J/K/mol
216.09 K | 127.78 J/K/mol
216.9 K | 127.98 J/K/mol
217.7 K | 128.19 J/K/mol
218.51 K | 128.52 J/K/mol
219.31 K | 128.78 J/K/mol
220 K | 129.21 J/K/mol
220.12 K | 129.04 J/K/mol
220.93 K | 129.3 J/K/mol
221.73 K | 129.49 J/K/mol
222.54 K | 129.74 J/K/mol
223.35 K | 130.02 J/K/mol
224.16 K | 130.26 J/K/mol
224.97 K | 130.53 J/K/mol
225.78 K | 130.71 J/K/mol
226.59 K | 130.98 J/K/mol
227.4 K | 131.32 J/K/mol
228.21 K | 131.61 J/K/mol
229.02 K | 131.83 J/K/mol
229.83 K | 132.08 J/K/mol
230 K | 132.37 J/K/mol
230.64 K | 132.31 J/K/mol
231.45 K | 132.78 J/K/mol
232.27 K | 133.46 J/K/mol
233.08 K | 133.22 J/K/mol
233.89 K | 133.51 J/K/mol
234.71 K | 133.83 J/K/mol
235.52 K | 134.25 J/K/mol
236.33 K | 134.61 J/K/mol
237.15 K | 134.97 J/K/mol
237.96 K | 135.18 J/K/mol
238.78 K | 135.77 J/K/mol
239.59 K | 135.43 J/K/mol
240 K | 135.44 J/K/mol
240.41 K | 136.44 J/K/mol
241.22 K | 136.59 J/K/mol
242.04 K | 136.32 J/K/mol
242.86 K | 137.27 J/K/mol
243.68 K | 137.4 J/K/mol
244.44 K | 137.03 J/K/mol
244.5 K | 136.97 J/K/mol
244.81 K | 137.21 J/K/mol
244.94 K | 137.26 J/K/mol
245.31 K | 136.68 J/K/mol
245.38 K | 137.26 J/K/mol
245.44 K | 137.55 J/K/mol
245.94 K | 137.54 J/K/mol
245.96 K | 137.42 J/K/mol
246.13 K | 137.45 J/K/mol
246.46 K | 137.69 J/K/mol
246.53 K | 137.6 J/K/mol
246.95 K | 137.65 J/K/mol
246.96 K | 137.71 J/K/mol
247.11 K | 137.65 J/K/mol
247.46 K | 137.8 J/K/mol
247.68 K | 138 J/K/mol
247.77 K | 137.93 J/K/mol
247.97 K | 138.06 J/K/mol
248.25 K | 138.01 J/K/mol
248.47 K | 138.27 J/K/mol
248.59 K | 138.16 J/K/mol
248.83 K | 138.31 J/K/mol
248.98 K | 138.36 J/K/mol
249.41 K | 138.87 J/K/mol
249.42 K | 138.7 J/K/mol
249.48 K | 138.72 J/K/mol
249.98 K | 139.15 J/K/mol and 138.93 J/K/mol
250.24 K | 139.23 J/K/mol
250.49 K | 139.26 J/K/mol
250.56 K | 139.43 J/K/mol
250.99 K | 139.62 J/K/mol
251.06 K | 139.79 J/K/mol
251.14 K | 139.9 J/K/mol
251.5 K | 140.25 J/K/mol
251.71 K | 140.3 J/K/mol
251.88 K | 140.46 J/K/mol
252 K | 140.41 J/K/mol
252.28 K | 140.89 J/K/mol
252.51 K | 140.56 J/K/mol
252.7 K | 140.98 J/K/mol
252.86 K | 141.23 J/K/mol
253.02 K | 141.02 J/K/mol
253.43 K | 141.89 J/K/mol
253.52 K | 141.72 J/K/mol and 141.4 J/K/mol
254.01 K | 143.16 J/K/mol
254.03 K | 142.77 J/K/mol
